PubChem BioAssay (NCI)
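Method: 48-hour compound exposure of cells in 96-well plates, five concentrations, linear interpolation of endpoints. Definition used: TGI = concentration required for complete inhibition of growth.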

Experiments:
Assay in all cases: NCI-60 cell line screen, 48 h
786-0 renal = test system: 786-0 renal
A498 renal = test system: A498 renal
A549 NSCLC = test system: A549 NSCLC
ACHN renal = test system: ACHN renal
BT-549 breast = test system: BT-549 breast
CAKI-1 renal = test system: CAKI-1 renal
CCRF-CEM leukemia = test system: CCRF-CEM leukemia
COLO 205 colon = test system: COLO 205 colon
DU-145 prostate = test system: DU-145 prostate
EKVX NSCLC = test system: EKVX NSCLC
HCC-2998 colon = test system: HCC-2998 colon
HCT-116 colon = test system: HCT-116 colon
HCT-15 colon = test system: HCT-15 colon
HL-60(TB) leukemia = test system: HL-60(TB) leukemia
HOP-62 NSCLC = test system: HOP-62 NSCLC
HOP-92 NSCLC = test system: HOP-92 NSCLC
HS 578T breast = test system: HS 578T breast
HT29 colon = test system: HT29 colon
IGROV1 ovarian = test system: IGROV1 ovarian
K-562 leukemia = test system: K-562 leukemia
KM12 colon = test system: KM12 colon
LOX IMVI melanoma = test system: LOX IMVI melanoma
M14 melanoma = test system: M14 melanoma
MALME-3M melanoma = test system: MALME-3M melanoma
MCF7 breast = test system: MCF7 breast
MDA-MB-231 breast = test system: MDA-MB-231 breast
MDA-MB-435 = test system: MDA-MB-435
MDA-N = test system: MDA-N
MOLT-4 leukemia = test system: MOLT-4 leukemia
NCI-H226 lung = test system: NCI-H226 lung
NCI-H23 lung = test system: NCI-H23 lung
NCI-H460 lung = test system: NCI-H460 lung
NCI-H522 lung = test system: NCI-H522 lung
NCI/ADR-RES ovarian = test system: NCI/ADR-RES ovarian
OVCAR-3 ovarian = test system: OVCAR-3 ovarian
OVCAR-4 ovarian = test system: OVCAR-4 ovarian
OVCAR-5 ovarian = test system: OVCAR-5 ovarian
OVCAR-8 ovarian = test system: OVCAR-8 ovarian
PC-3 prostate = test system: PC-3 prostate
RPMI-8226 leukemia = test system: RPMI-8226 leukemia
SF-268 CNS = test system: SF-268 CNS
SF-295 CNS = test system: SF-295 CNS
SF-539 CNS = test system: SF-539 CNS
SK-MEL-2 melanoma = test system: SK-MEL-2 melanoma
SK-MEL-28 melanoma = test system: SK-MEL-28 melanoma
SK-MEL-5 melanoma = test system: SK-MEL-5 melanoma
SK-OV-3 ovarian = test system: SK-OV-3 ovarian
SN12C renal = test system: SN12C renal
SNB-19 CNS = test system: SNB-19 CNS
SNB-75 CNS = test system: SNB-75 CNS
SR leukemia = test system: SR leukemia
SW-620 colon = test system: SW-620 colon
T-47D breast = test system: T-47D breast
TK-10 renal = test system: TK-10 renal
U251 CNS = test system: U251 CNS
UACC-257 melanoma = test system: UACC-257 melanoma
UACC-62 melanoma = test system: UACC-62 melanoma
UO-31 renal = test system: UO-31 renal

Cc1ccc2c(c1)C(=O)c1[nH]c3ccc(F)cc3c1CO2
TGI (786-0 renal): > 100 µM
TGI (A498 renal): > 100 µM
TGI (A549 NSCLC): > 100 µM
TGI (ACHN renal): > 100 µM
TGI (BT-549 breast): > 100 µM
TGI (CAKI-1 renal): > 100 µM
TGI (CCRF-CEM leukemia): > 100 µM
TGI (COLO 205 colon): > 100 µM
TGI (DU-145 prostate): > 100 µM
TGI (EKVX NSCLC): > 100 µM
TGI (HCC-2998 colon): > 100 µM
TGI (HCT-116 colon): > 100 µM
TGI (HCT-15 colon): > 100 µM
TGI (HL-60(TB) leukemia): > 100 µM
TGI (HOP-62 NSCLC): 36 µM
TGI (HOP-92 NSCLC): > 100 µM
TGI (HS 578T breast): 58.1 µM
TGI (HT29 colon): > 100 µM
TGI (IGROV1 ovarian): > 100 µM
TGI (K-562 leukemia): > 100 µM
TGI (KM12 colon): > 100 µM
TGI (LOX IMVI melanoma): > 100 µM
TGI (M14 melanoma): > 100 µM
TGI (MALME-3M melanoma): > 100 µM
TGI (MCF7 breast): > 100 µM
TGI (MDA-MB-231 breast): > 100 µM
TGI (MDA-MB-435): > 100 µM
TGI (MDA-N): > 100 µM
TGI (MOLT-4 leukemia): > 100 µM
TGI (NCI-H226 lung): > 100 µM
TGI (NCI-H23 lung): > 100 µM
TGI (NCI-H460 lung): > 100 µM
TGI (NCI-H522 lung): > 100 µM
TGI (NCI/ADR-RES ovarian): > 100 µM
TGI (OVCAR-3 ovarian): > 100 µM
TGI (OVCAR-4 ovarian): 88.8 µM
TGI (OVCAR-5 ovarian): > 100 µM
TGI (OVCAR-8 ovarian): 62.2 µM
TGI (PC-3 prostate): > 100 µM
TGI (RPMI-8226 leukemia): > 100 µM
TGI (SF-268 CNS): > 100 µM
TGI (SF-295 CNS): 31.6 µM
TGI (SF-539 CNS): 49.8 µM
TGI (SK-MEL-2 melanoma): 40.6 µM
TGI (SK-MEL-28 melanoma): > 100 µM
TGI (SK-MEL-5 melanoma): > 100 µM
TGI (SK-OV-3 ovarian): 43 µM
TGI (SN12C renal): > 100 µM
TGI (SNB-19 CNS): 46.8 µM
TGI (SNB-75 CNS): 40.4 µM
TGI (SR leukemia): > 100 µM
TGI (SW-620 colon): > 100 µM
TGI (T-47D breast): > 100 µM
TGI (TK-10 renal): 92.6 µM
TGI (U251 CNS): 50.2 µM
TGI (UACC-257 melanoma): > 100 µM
TGI (UACC-62 melanoma): 98.2 µM
TGI (UO-31 renal): > 100 µM

OC1CC2CCCN(CCc3c1[nH]c1ccccc31)C2 (centres undefined)
TGI (786-0 renal): > 100 µM
TGI (A498 renal): > 100 µM
TGI (A549 NSCLC): > 100 µM
TGI (ACHN renal): > 100 µM
TGI (BT-549 breast): > 100 µM
TGI (CAKI-1 renal): > 100 µM
TGI (CCRF-CEM leukemia): > 100 µM
TGI (COLO 205 colon): > 100 µM
TGI (DU-145 prostate): > 100 µM
TGI (HCC-2998 colon): > 100 µM
TGI (HCT-116 colon): > 100 µM
TGI (HCT-15 colon): > 100 µM
TGI (HL-60(TB) leukemia): > 100 µM
TGI (HOP-92 NSCLC): > 100 µM
TGI (HS 578T breast): > 100 µM
TGI (HT29 colon): > 100 µM
TGI (K-562 leukemia): > 100 µM
TGI (KM12 colon): > 100 µM
TGI (LOX IMVI melanoma): > 100 µM
TGI (MALME-3M melanoma): > 100 µM
TGI (MCF7 breast): > 100 µM
TGI (MDA-MB-231 breast): > 100 µM
TGI (MDA-MB-435): > 100 µM
TGI (MDA-N): > 100 µM
TGI (NCI-H226 lung): > 100 µM
TGI (NCI-H23 lung): > 100 µM
TGI (NCI-H460 lung): > 100 µM
TGI (NCI-H522 lung): > 100 µM
TGI (NCI/ADR-RES ovarian): > 100 µM
TGI (OVCAR-4 ovarian): > 100 µM
TGI (OVCAR-8 ovarian): > 100 µM
TGI (PC-3 prostate): > 100 µM
TGI (RPMI-8226 leukemia): > 100 µM
TGI (SF-268 CNS): > 100 µM
TGI (SF-295 CNS): > 100 µM
TGI (SF-539 CNS): > 100 µM
TGI (SK-MEL-2 melanoma): > 100 µM
TGI (SK-MEL-28 melanoma): > 100 µM
TGI (SK-MEL-5 melanoma): > 100 µM
TGI (SK-OV-3 ovarian): > 100 µM
TGI (SN12C renal): > 100 µM
TGI (SNB-19 CNS): > 100 µM
TGI (SNB-75 CNS): > 100 µM
TGI (SR leukemia): > 100 µM
TGI (SW-620 colon): > 100 µM
TGI (T-47D breast): > 100 µM
TGI (TK-10 renal): > 100 µM
TGI (U251 CNS): > 100 µM
TGI (UACC-257 melanoma): > 100 µM
TGI (UACC-62 melanoma): > 100 µM
TGI (UO-31 renal): > 100 µM
